Data set [1] has as its system C. elegans. Kind of data set: C. elegans larval growth assay: heat-killed E. coli plus trace live E. coli, worm volume. It counts as in vivo. As to conditions: for worm growth with dietary supplementation: worms fed heat-killed E. coli plus live entA- or entF- mutant E. coli (Ent-deficient food). The text has this: In one embodiment of the inventive technology, the present inventors created a unique assay to facilitate the identification of microbial metabolites that benefit growth and development of host animals. […] This unique feeding condition was used to search for E. coli mutants that fail to support normal worm growth, potentially due to their inability to provide specific metabolites to benefit host animals.
E. coli Keio collection screen. Preparation of heat-killed (HK) OP50 plates followed the procedure described previously (Qi et al., 2017). Standard overnight culture of E. coli OP50 grown in LB broth was concentrated to 1/10 vol and was then heat-killed in a 75° C. water bath for 90 min. The 150 µl of the HK-OP50 was spread onto one side of NGM plate. For preparation of bacterial mutant assay plates, E. coli Keio (Baba et al., 2006) mutants were grown overnight at 37° C. in LB medium with […] kanamycin. 0.2 uL of the bacterial culture (OD600) were seeded to the other side of HK OP50 plate. About 300 synchronized L1 worms were added to the screen plate, and cultured at 20° C., then scored for worm size at day 3 and day 4. The entire library was used for the primary screen; each bacterial mutant was screened once. For the secondary screen, 200 candidate mutants were screened (3 replicates) to confirm the slow growth phenotype.
Chemical supplementation of culture plates. For chemical supplementation, each chemical was dissolved in water or DMSO to generate a stock. The stock solution was added to HK OP50 and then spotted onto NGM plates. […] For CaEDTA supplementation (Kiang et al., 2014), 50 ul of CaEDTA (50 ug/ul) was spread onto the center of the NGM plates seeded with OP50, then different volume of the FeCl3[175 ug/ul] […] Bacterial growth analyses. Overnight cultures were diluted to a final OD600=0.01 in 200 μL of NGM liquid medium. Bacteria were grown in 96-well plates with shaking in a Synergy2 plate reader (BioTek) at 37° C. for 17 h. The OD600 was recorded at 20 min intervals.
Analysis of larval growth by measuring worm size. Synchronized L1 worms were seeded on the indicated NGM plate and grew to the indicated times. Photos were taken and worms volume in each photo were measured by WormSizer software (Moore et al., 2013).

Data set [2] can be described thus: Stability by NGAL fluorescence assay. It counts as physicochemical. As to conditions: same concentration and buffers, room temp, light. The text has this: FIG. 25. […] Degradation is indicated by increased absorbance. […] Degradation is indicated by increased relative fluorescence. […] For all tests, dilutions were kept at room temp and exposed to light. Error is standard deviation of the mean.

Data set [3] has as its system C. elegans smf-3/DMT1 mutant. Kind of data set: Growth of iron-deficient C. elegans smf-3/DMT1(-) mutant with iron chelator 2,2'-bipyridyl. It counts as in vivo. Here is the method: FIG. 26. […] All tests were done on a smf-3/DMT1(-) mutant strain in a culture media where an iron chelator (2,2′-bipyridyl) was added to reduce the environmental iron level (FIG. 26A). […] This growth delay was rescued by supplementation with Ent, scored as the percentage of the population at the indicated growth stage. […] The entP,fepA: E. coli mutant cannot synthesize or utilize Enterobactin.
SMF-3/DMT1 is a conserved divalent metal transporter that transports iron into intestinal cells. The smf-3/DMT1 mutant has been established as an iron deficiency model in C. elegans. These mutants have defective iron uptake that results in iron deficiency (Romney et al 2011) and delayed growth under iron-poor growth conditions created by addition of an iron chelator (2,2′-bipyridyl) to the culture media (Raj an et al 2019).
To determine if the Enterobactin supplementation was benefiting the worm directly or benefiting the worm through an E. coli-dependent mechanism, the test was repeated using an E. coli double mutant that cannot synthesize or utilize Ent (entP,fepk).

Another data set deals with MEL cells. Kind of data set: Erythroid differentiation of MEL cells (color change of cell pellets). Conditions: equimolar supplementation. It counts as cell-based, murine. Here is the method:
FIG. 27. Ferric Enterobactin supplementation benefits differentiation of erythroid progenitor cells (MEL) to red blood cells. (FIG. 27A) MEL cells were grown with the indicated treatments. Cell pellets are shown. (FIG. 27B) Quantification of MEL color change presented as the average intensity of each cell pellet, normalized to the intensity of the control. Error bars are the standard deviation of three technical replicates.
MEL cells are murine erythroid progenitor cells that are arrested at the proerythroblast stage. In the laboratory, these cells are induced to undergo erythroid differentiation to red blood cells by addition of various chemicals (e.g. 2% DMSO) (Friend, 1971). Erythroid differentiation is an iron-dependent process that results in a color change in the differentiated cells. The present inventors tested if addition of Fe-Ent would positively impact the differentiation of wild-type MEL cells to red blood cells.

For data set [4], the system named is C. elegans. Put plainly: Iron level in live worms by calcein-AM staining (and pftn-2::GFP reporter). It counts as in vivo.
Protocol: The present inventors employed the commonly used fluorescent cell-permeable dye, calcein AM, of which emission is quenched by iron binding, and applied it to live worms as previously described to estimate the overall iron level in the host.
Live imaging of iron in worms was done as previously described (James et al., 2015). Briefly, worms were collected at different culture conditions, then co-cultured in M9 with 0.05 ug/ML calcein-AM (Invitrogen) for 1 h, then washed 3 times in 1 ml M9. Samples were then mounted for fluorescence microscopy.
For calcein-AM staining, the original images taken with GFP channel were used to measure the intensity. The value of staining intensity was determined by subtracting the background intensity from the calcein-AM stained intestine.
In data set [5] the test system is C. elegans. Kind of data set: Siderophore toxicity test: worm growth and mitochondrial morphology (mtGFP). It counts as in vivo. Conditions: for defects in growth or mitochondrial morphology: solid medium, worms fed wild-type E. coli. The text has this:
FIG. 8. Bacterial enterobactin promotes C. elegans development. […] (8E) The entA- and entF-mutant E. coli strains colonized the host gut as efficiently as the parental wild-type strain. (FIG. 8F) Cartoon diagram of feeding condition, microscope images and bar graph showing that neither pyoverdine nor ferrichrome caused obvious growth defects in worms fed heat-killed food plus wild-type, live E. coli. (FIG. 8G) Fluorescence microscopy of worms containing mtGFP under the same feeding condition as in (FIG. 8F). […] “n” =number of worms scored. Data are represented as mean±SEM. ***P<0.0001.

Square brackets hold non-standard residues; d marks the D form. Peptide text beside a SMILES is read from it. Orn(N5-OH,N5-Ac) = CC(=O)N(O)CCC[C@H](N)C(=O)O

Turning to `O=C(O)c1cccc(O)c1O` [2,3-DHBA, 2,3-dihydroxybenzoic acid], the “worm growth with dietary supplementation” value in the data set on C. elegans [1] was “rescued worm growth on entA- but not entF-E. coli”.

With `O=C(N[C@H]1COC(=O)[C@@H](NC(=O)c2cccc([O-])c2[O-])COC(=O)[C@@H](NC(=O)c2cccc([O-])c2[O-])COC1=O)c1cccc([O-])c1[O-].[Fe+3]` [Fe-Ent, ferric enterobactin], the “stability of Ent versus Fe-Ent” value in data set [2] is listed as “more stable than Ent alone”. Also, the “growth of smf-3(-) mutants” value in data set [3] (E. coli double mutant that cannot synthesize or utilize Ent) was “independent of E. coli”; in data set [3] (iron chelator 2,2'-bipyridyl in media), “faster and to a greater extent than observed for Enterobactin or FeCl3 supplementation alone”. Further, the “MEL differentiation to red blood cells” value with MEL cells was “increase in MEL differentiation, and this increase was better than supplementation with equimolar FeCl3 alone”.

Turning to `[Cl][Fe]([Cl])[Cl]` [FeCl3, ferric chloride, reference compound], the cellular iron level entry in the data set on C. elegans [4] (animals fed Ent-deficient food) is reported as “nor raised cellular iron level”. For the same compound, the “iron level and growth rate defects” value with C. elegans [4] (iron-deficient condition, worms treated with CaEDTA) was “both defects were suppressed”. Besides, in the data set with C. elegans [1] (ferric chloride added to live wild-type E. coli, with heat-killed E. coli), the worm growth result was “worm growth defect”. Moreover, the “worm growth with dietary supplementation” value with C. elegans [1] is “neither suppressed the growth defect”.

Turning to `CC(=O)N([O-])CCC[C@@H]1NC(=O)CNC(=O)CNC(=O)CNC(=O)[C@H](CCCN([O-])C(C)=O)NC(=O)[C@H](CCCN([O-])C(C)=O)NC1=O.[Fe+3]` [ferrichrome] (cyclo(GGG[Orn(N5-OH,N5-Ac)][Orn(N5-OH,N5-Ac)][Orn(N5-OH,N5-Ac)])), the “defects in growth or mitochondrial morphology” value in the data set with C. elegans [5] is “no obvious defects”. Besides, the “worm growth with dietary supplementation” value with C. elegans [1] is listed as “failed to generate a similar impact on worm growth”.

hemin: the “worm growth with dietary supplementation” value with C. elegans [1] is given as “did not impact animal growth”.

As for pyoverdine, in the data set with C. elegans [5] (liquid culture), the “mitochondrial morphology (mtGFP)” value is “toxic to worms as it damages host mitochondria”. Also, the “defects in growth or mitochondrial morphology” value in the data set with C. elegans [5] is recorded as “no obvious defects”. For the same compound, in the data set on C. elegans [1], the “worm growth with dietary supplementation” value is “failed to generate a similar impact on worm growth”.

The values above are taken from patent US20210187014A1 (The Regents of the University of Colorado, a body corporate, priority 2018, published 2021).
